The values below come from patent US11352320B2 (Merck Sharp & Dohme Corp., priority 2018, dated 2022).

Molecules are shown by their SMILES. Counter-ions that a name gives are not always drawn.

Experiment [1] deals with T1, IDO1 (Homo sapiens, UniProt P14902). Briefly: IDO1 Human Whole Blood Assay. The note with it: LPS and IFNγ 100 ng/mL, 18 h, kynurenine by LC/MS/MS. Type of experiment: cell-based. As to the method: IDO1 Human Whole Blood Assay
Compounds to be tested were serially diluted in ten 3-fold steps in DMSO starting from 10 mM. 3 μL of compound dilutions or DMSO alone were then dispensed from the dilution plate into a polypropylene 96-well assay plate containing 97 μL of RPMI medium using an Echo 555 acoustic liquid handler (Labcyte). LPS and IFNγ was prepared in RPMI medium to a 10× of final conc. (1000 ng/mL), final concentration is 100 ng/mL.
Two hundred forty μL of blood was transferred to each of the wells of a v-bottom 96 well plate. Thirty μL of compound was transferred from intermediate dilution plate, and incubated for 15 min. Thirty μL from stimulants was then transferred to blood and mixed thoroughly. Plate was covered with breathable membrane and incubated at 37° C. for overnight (18 h).
On day 2 isotope labeled standard of kynurenine and tryptophan was made in water at 10× concentration and 30 μL was added to the blood at 3 μM final concentration. The assay plates were centrifuged at 300×G for 10 min with no brake to separate plasma from red blood cells. Sixty μL of plasma samples was removed without disturbing red blood cells. Plasma was diluted with RPMI in 1:1 ratio and proteins were precipitated out with two volume of acetonitrile. The plates were centrifuged at 4000×G for 60 min. Twenty μL of supernatant was carefully transferred to a 384 well plate containing 40 μL of 0.1% formic acid in water and analyzed by LC/MS/MS.
LC/MS/MS analyses were performed using Thermo Fisher's LX4-TSQ Quantum Ultra system. This system consists of four Agilent binary high-performance liquid chromatography (HPLC) pumps and a TSQ Quantum Ultra triple quadruple MS/MS instrument. For each sample, 5 μL were injected onto an Atlantis T3 column (2.1 mm×150 mm, 3 μm particle size) from Waters. The mobile phase gradient pumped at 0.8 mL/min was used to elute the analytes from the column at 25° C. […] Compounds were titrated and IC50's were calculated by 4 parameter sigmoidal curve fitting formula. […]

The target of experiment [2] is T1, IDO1. Briefly: IDO1 Cellular Assay in Hela Cells Stimulated with IFNγ. It counts as cell-based. Also on record: endogenous in cells; host or cells: HeLa cells stimulated with IFNγ. The note with it: IFNγ 100 ng/mL, 300 uM L-tryptophan, about 48 hours, fluorescence readout, read-out: IDO1 HELA Cell Assay, IC50. As to the method: Biological Assays IDO1 Cellular Assay in Hela Cells Stimulated with IFNγ
Hela cells were cultured in complete Hela culture medium (90% EMEM, 10% heat-inactivated fetal bovine serum) and expanded to about 1×10^9 cells. The cells were then collected and frozen down at 1×10^7 cells/vial in 1 mL frozen medium (90% complete Hela culture medium, 10% DMSO)
Compounds to be tested were serially diluted in ten 3-fold steps in DMSO starting from 10 mM DMSO stocks in Echo low volume plate(s). Compound dilutions or DMSO alone were then dispensed from the dilution plate(s) into Greiner black 384-well assay plate(s) (catalog #781086, 50 nL/well) using an Echo 550 acoustic liquid handler (Labcyte).
Frozen Hela cells were thawed and transferred into Hela assay medium (99% complete Hela culture medium, 1% Pen/Strep) with 20 mL medium/vial of cells. The cells were spun down at 250 g in a table top centrifuge for 5 min and suspended in same volume of Hela assay medium. The cells were then counted and adjusted to a density of 2×10^5 cells/ml in Hela assay medium. Sterile L-tryptophan were added to the cells with final concentration of 300 uM L-tryptophan. A small aliquot (2 mL/plate) of Hela cells were set aside and were not treated with IFNγ, to serve as the Max-E control. The rest of Hela cells were added with sterile IFNγ (Cat #285-IF, R & D systems) with a final concentration of 100 ng/mL.
Hela cells with and without IFNγ were dispensed to the respective wells of 384-well assay plates containing the compounds. The plates were incubated for about 48 hours at a 37° C., 5% CO2 incubator. Afterwards, 12 μL of 0.5 M methyl isonipecotate in dimethyl sulfoxide were added into each well and the plates were sealed and incubated at 37° C. without CO2 overnight. The plates were centrifuged for 1 min at 200×g. The resulting fluorescence was measured in a Spectramax plate reader (Molecular Devices) with a 400 nm excitation filter and a 510 nm emission filter.
The fluorescence intensity of each well was corrected for the background observed in wells with non-IFNγ-treated cells and was expressed as a fraction of the intensity observed in wells of IFNγ-treated cells and DMSO only. Potencies were calculated by linear least squares fit to the four parameter logistic IC50 equation.
Compounds disclosed herein generally have IC50 of about 1 nM to about 1,000 nM, or more specifically, about 2 nM to about 800 nM, or more specifically, about 5 nM to about 600 nM, or still more specifically, about 10 nM to about 500 nM. Such a result is indicative of the intrinsic activity of the compounds in use as an inhibitor of an IDO enzyme.

T1 sequence (P14902 whole entry): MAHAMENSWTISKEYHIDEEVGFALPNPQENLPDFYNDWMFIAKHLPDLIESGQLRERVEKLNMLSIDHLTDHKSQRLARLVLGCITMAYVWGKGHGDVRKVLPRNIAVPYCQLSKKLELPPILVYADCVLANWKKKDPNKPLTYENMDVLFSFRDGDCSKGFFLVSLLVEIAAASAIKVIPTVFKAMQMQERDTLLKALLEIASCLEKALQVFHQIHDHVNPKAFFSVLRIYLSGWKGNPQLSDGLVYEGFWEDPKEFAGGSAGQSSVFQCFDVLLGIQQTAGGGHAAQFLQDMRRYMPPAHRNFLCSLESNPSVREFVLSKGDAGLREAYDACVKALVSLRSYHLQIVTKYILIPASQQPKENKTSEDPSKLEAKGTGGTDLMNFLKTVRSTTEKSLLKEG

As a reminder, the IC50 is the concentration that inhibits the measured activity by half. As to `CC(C(=O)Nc1ccc(F)cc1)C12CC(Nc3ncnc4ccc(F)cc34)(C1)C2` (single isomer, unassigned) [Example 11, N-(4-fluorophenyl)-2-(3-((6-fluoroquinazolin-4-yl)amino)bicyclo[1.1.1]pentan-1-yl)propanamide], the IC50 is 378 nM against IDO1 [1] and 3.23 nM on IDO1 [2].

For `CC(C(=O)Nc1ccc(F)cc1)C12CC(Nc3ncnc4ccccc34)(C1)C2` (single isomer, unassigned) [Example 5, N-(4-fluorophenyl)-2-(3-(quinazolin-4-ylamino)bicyclo[1.1.1]pentan-1-yl)propanamide], the values for the IC50 at IDO1 [1] and at IDO1 [2] were 543 nM and 5.38 nM, respectively. Regarding `C[C@H](C(=O)Nc1ccc(F)cc1)C12CC(N(C)Cc3cccc(Cl)c3)(C1)C2` [Example 29, (S)-2-(3-((3-chlorobenzyl)(methyl)amino)bicyclo[1.1.1]pentan-1-yl)-N-(4-fluorophenyl)propanamide, TFA], the IC50 against IDO1 [1] is 625 nM; on IDO1 [2], 5.6 nM.

For `CC(C(=O)Nc1ccc(F)cc1)C12CC(Nc3nccc(C(F)(F)F)c3C#N)(C1)C2` (centres unmarked) [Example 17, 2-(3-{[3-cyano-4-(trifluoromethyl)pyridin-2-yl]amino}bicyclo[1.1.1]pentan-1-yl)-N-(4-fluorophenyl]propanamide], at IDO1 [2], the IC50 is 27.2 nM. As to `CC(C(=O)Nc1ccc(F)cc1)C12CC(Nc3nccc4cccnc34)(C1)C2` (centres unmarked) [Example 12, N-(4-fluorophenyl)-2-{3-[(1,7-naphthyridin-8-yl)amino]bicyclo[1.1.1]pentan-1-yl}propanamide], the IC50 on IDO1 [2] worked out at 587 nM.
